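These data come from cells grown in 96-well plates and exposed to compound for 48 hours at five concentrations. GI50 marks 50% less growth.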 Activity calls are given as the source filed them. No stated cut-off is given here; in the data, active = GI50 up to about 1.1 µM and inactive = higher.

One may read the GI50 as the concentration giving 50% growth inhibition.

Holding throughout (experiment): DTP human tumour cell line panel, 48 h
Assay [1] concerns UACC-62.
Assay [2] relates to MOLT-4.
Assay [3] has as its system SF-268.
Assay [4] relates to MDA-MB-435.
Assay [5] has as its system SK-OV-3.
Assay [6] deals with HT-29.
Assay [7] concerns K562.
In assay [8] the test system is SN12C.
Assay [9] has as its system KM12.
The subject of assay [10] is IGROV-1.
For assay [11], the system named is SK-MEL-28.
Assay [12] has as its system ACHN.
For assay [13], the system named is OVCAR-3.
In assay [14] the test system is A549.
In assay [15] the test system is BT-549.
Assay [16] deals with COLO 205.
Assay [17] concerns NCI-H23.
Assay [18] concerns MDA-MB-231.
In assay [19] the test system is Malme-3M.

As for `COc1ccc2c(c1)CCN1CCCc3ccc(OC)cc3C21` (stereo not given), the GI50 in assay [1] was 57.3 µM (inactive); in [2], 37.1 µM (inactive); in [3], 82.6 µM (inactive); in assay [4] it was 36.4 µM (inactive); in assay [5], 77.4 µM (inactive); in assay [6], 31.7 µM (inactive). Moreover, the GI50 in [7] was 36 µM (inactive); in assay [8], 50 µM (inactive); in assay [9], 60.4 µM (inactive); in assay [10], 57.4 µM (inactive); in assay [11], > 100 µM (inactive); in [12], > 100 µM (inactive). The GI50 is 92 µM (inactive) in assay [13]; 75 µM (inactive) in [14]; 34 µM (inactive) in assay [15]; 44.4 µM (inactive) in assay [16]; 68.5 µM (inactive) in [17]; 49.8 µM (inactive) in assay [18].
`CCCCN1C(=O)c2c(Br)sc(Br)c2C1=O`: the GI50 is 32.4 µM (inactive) in [1]; 24.2 µM (inactive) in [2]; 31.8 µM (inactive) in [3]; 37.4 µM (inactive) in assay [4]; 37.6 µM (inactive) in assay [5]; 23.3 µM (inactive) in assay [6]. In addition, the GI50 was 30.5 µM (inactive) in assay [7]; 34.5 µM (inactive) in assay [8]; 25.1 µM (inactive) in assay [9]; 31.6 µM (inactive) in assay [10]; 43.9 µM (inactive) in assay [11]; 47.8 µM (inactive) in assay [12]. In addition, the GI50 is 25.8 µM (inactive) in [14]; 61.9 µM (inactive) in assay [15]; 19.5 µM (inactive) in assay [16]; 33.2 µM (inactive) in assay [19]; 44.3 µM (inactive) in assay [17]; 26.9 µM (inactive) in assay [18].
Take `O=S(=O)(c1ccccc1)n1c(C(O)c2ccncc2)cc2ccccc21` (stereo not given): the GI50 was 26.5 µM (inactive) in assay [1]; 23.7 µM (inactive) in assay [2]; 36.3 µM (inactive) in assay [4]; 44.4 µM (inactive) in assay [5]; 44.6 µM (inactive) in assay [6]; 31.6 µM (inactive) in [7]. Further, the GI50 in [8] is > 100 µM (inactive); in assay [9], 57.1 µM (inactive); in assay [10] it was 39.2 µM (inactive); in [11] it was 55.1 µM (inactive); in assay [12], 37.7 µM (inactive); in assay [13] it was 46.8 µM (inactive). Moreover, the GI50 in assay [14] is 31.3 µM (inactive); in [15], 45.4 µM (inactive); in assay [16] it was 39.7 µM (inactive); in assay [17] it was 44.7 µM (inactive); in [18] it was 74.6 µM (inactive).
For `CCc1c(-c2ccc(OC)cc2)c(=O)oc2cc(O)ccc12`, the GI50 in assay [1] is 19.4 µM (inactive); in assay [2], 16 µM (inactive); in [3] it was 41.5 µM (inactive); in assay [4], 27.6 µM (inactive); in assay [6], 40.7 µM (inactive); in assay [7] it was 29.8 µM (inactive). The GI50 is 35.9 µM (inactive) in assay [8]; 37.2 µM (inactive) in assay [9]; 42.4 µM (inactive) in [10]; 36.7 µM (inactive) in assay [11]; 27.7 µM (inactive) in [12]; 28.4 µM (inactive) in [13]. In addition, the GI50 in [14] was 27.3 µM (inactive); in assay [15], 25.1 µM (inactive); in assay [16], 28.2 µM (inactive); in assay [19], 25.5 µM (inactive); in assay [17], 49.1 µM (inactive); in assay [18], 57.5 µM (inactive).
Take `CSc1cnn(CCC#N)c(=O)n1`: the GI50 is > 100 µM (inactive) in assay [1]; 27.1 µM (inactive) in assay [2]; > 100 µM (inactive) in assay [3]; > 100 µM (inactive) in [4]; > 100 µM (inactive) in [5]; > 100 µM (inactive) in [6]. Also, the GI50 in assay [7] is 33.1 µM (inactive); in assay [8], > 100 µM (inactive); in assay [9], > 100 µM (inactive); in assay [10], > 100 µM (inactive); in [11] it was > 100 µM (inactive); in assay [12] it was > 100 µM (inactive). The GI50 in assay [14], in assay [15], in assay [16], in assay [19], in [17] and in assay [18] was > 100 µM (inactive) each time.
For the molecule `Cn1c(=O)c2c(nc3sc4ccccc4c(=O)n32)n(C)c1=O`, the GI50 in [1], in assay [2], in assay [3], in assay [4], in [5] and in [6] was > 100 µM (inactive) each time. The GI50 in [7], in [8], in assay [9], in assay [10], in assay [11] and in [12] was > 100 µM (inactive) throughout. Besides, the GI50 in assay [13], in assay [15], in assay [16], in assay [17] and in assay [18] was > 100 µM (inactive) in each case.
As to `OC(CCN1CCN(CCOC(c2ccccc2)c2ccccc2)CC1)c1ccc(Br)cc1` (stereo not given), the GI50 in assay [1] is 10.6 µM (inactive); in [3], 14.8 µM (inactive); in [4], 11 µM (inactive); in assay [5], 13.1 µM (inactive); in assay [6], 4.27 µM (inactive); in assay [8] it was 11.8 µM (inactive). Also, the GI50 in assay [9] was 11.4 µM (inactive); in [10], 10.9 µM (inactive); in [11], 7.69 µM (inactive); in assay [12], 10.8 µM (inactive); in assay [13], 12.6 µM (inactive); in assay [14], 14.9 µM (inactive). The GI50 was 13.3 µM (inactive) in assay [15]; 1.71 µM (inactive) in [16]; 11.7 µM (inactive) in assay [19]; 14 µM (inactive) in [17]; 11.7 µM (inactive) in assay [18].
On to `c1ccc([P+](Cc2ccccc2C[P+](c2ccccc2)(c2ccccc2)c2ccccc2)(c2ccccc2)c2ccccc2)cc1`, for which the GI50 was 44.2 µM (inactive) in assay [1]; > 100 µM (inactive) in assay [3]; 42.8 µM (inactive) in assay [4]; > 100 µM (inactive) in assay [5]; 51.2 µM (inactive) in [6]; 42.5 µM (inactive) in assay [7]. The GI50 in assay [8] is > 100 µM (inactive); in [9] it was 49.9 µM (inactive); in assay [10], 66.1 µM (inactive); in assay [11], > 100 µM (inactive); in [12], > 100 µM (inactive); in assay [13], 86.7 µM (inactive). In addition, the GI50 in assay [14] is > 100 µM (inactive); in assay [15] it was 65.9 µM (inactive); in [16] it was > 100 µM (inactive); in assay [19], > 100 µM (inactive); in assay [17], 87.3 µM (inactive); in [18], > 100 µM (inactive).
Take `N#Cc1c(N)[nH]c2ccc(Sc3ccccc3)cc12`: the GI50 in assay [1] is 0.133 µM (active); in [2], 0.143 µM (active); in assay [3], 0.248 µM (active); in [4], < 0.107 µM (active); in assay [5] it was 0.53 µM (active); in assay [6] it was 0.21 µM (active). The GI50 is < 0.0635 µM (active) in [7]; 0.574 µM (active) in [8]; 0.113 µM (active) in assay [9]; 0.198 µM (active) in assay [10]; 0.141 µM (active) in assay [11]; 0.284 µM (active) in [12]. Moreover, the GI50 is 0.215 µM (active) in assay [13]; 0.282 µM (active) in assay [14]; 1.16 µM (inactive) in [15]; 0.323 µM (active) in assay [16]; 0.323 µM (active) in [17]; 0.881 µM (active) in [18].
Regarding `Nc1nc(=S)n(-c2ccc(Cl)cc2)c2nc3ccccc3cc12`, the GI50 in assay [1] was 40.9 µM (inactive); in assay [3], 36.2 µM (inactive); in assay [4], 80.4 µM (inactive); in assay [5] it was 22.7 µM (inactive); in [6], 79.6 µM (inactive); in assay [7] it was 66.7 µM (inactive). Further, the GI50 in assay [8] was > 100 µM (inactive); in assay [9] it was 29.3 µM (inactive); in assay [10], 1.69 µM (inactive); in [11], > 100 µM (inactive); in assay [12], 18.8 µM (inactive); in [13], 45 µM (inactive). The GI50 in assay [14] is 97.7 µM (inactive); in [15] it was 19.1 µM (inactive); in assay [16] it was 36 µM (inactive); in [19] it was 32.5 µM (inactive); in assay [17], 56.9 µM (inactive); in assay [18] it was 60.5 µM (inactive).
As to `Cc1cc2c(O)nc(N)nc2nc1C`, the GI50 in [1], in [3], in assay [4], in [5], in [6] and in assay [7] was > 100 µM (inactive) each time. The GI50 in assay [8], in [9], in assay [10], in assay [11], in assay [12] and in assay [13] was > 100 µM (inactive) throughout. The GI50 in [14], in assay [15], in assay [16], in [19], in [17] and in assay [18] was > 100 µM (inactive) throughout.
